Experimental data: ChEMBL document CHEMBL1139219, “Synthesis and biological evaluation of quinoline salicylic acids as P-selectin antagonists” (J Med Chem, 2007)
pIC50: −log10 of the molar value. Activity calls are given as the source filed them. The calls are words filed in the database; no cut-off is given here.

Assays:
[1] = system: HUVEC; test: Inhibition of neutrophil adhesion to IL4-stimulated HUVEC by leukocyte rolling assay; type: functional, cell-based; conditions: Homo sapiens
[2] = Clearance in Sprague-Dawley rat at 1 mg/kg, iv; type: ADME, organism-based; parameters: dose 1 mg/kg, route intravenous; conditions: in vivo
[3] = AUC in Sprague-Dawley rat at 1 mg/kg, iv; type: ADME, organism-based; parameters: dose 1 mg/kg, route intravenous; conditions: plasma
[4] = Cmax in Sprague-Dawley rat at 1 mg/kg, iv; type: ADME, organism-based; parameters: dose 1 mg/kg, route intravenous; conditions: in vivo
[5] = organism: Rattus norvegicus; test: Toxicity in Lewis rat Freund's complete adjuvant-induced arthritis model; type: organism-based; conditions: in vivo
[6] = system: Rattus norvegicus; test: Plasma concentration in Lewis rat Freund's complete adjuvant-induced arthritis model at 10 mg/kg, po; type: ADME, organism-based; parameters: dose 10 mg/kg, route oral; conditions: in vivo
[7] = target: Cytochrome P450 2C9 (Homo sapiens, UniProt P11712); test: Inhibition of human CYP2C9; type: ADME
Chain of Cytochrome P450 2C9 (P11712 whole entry): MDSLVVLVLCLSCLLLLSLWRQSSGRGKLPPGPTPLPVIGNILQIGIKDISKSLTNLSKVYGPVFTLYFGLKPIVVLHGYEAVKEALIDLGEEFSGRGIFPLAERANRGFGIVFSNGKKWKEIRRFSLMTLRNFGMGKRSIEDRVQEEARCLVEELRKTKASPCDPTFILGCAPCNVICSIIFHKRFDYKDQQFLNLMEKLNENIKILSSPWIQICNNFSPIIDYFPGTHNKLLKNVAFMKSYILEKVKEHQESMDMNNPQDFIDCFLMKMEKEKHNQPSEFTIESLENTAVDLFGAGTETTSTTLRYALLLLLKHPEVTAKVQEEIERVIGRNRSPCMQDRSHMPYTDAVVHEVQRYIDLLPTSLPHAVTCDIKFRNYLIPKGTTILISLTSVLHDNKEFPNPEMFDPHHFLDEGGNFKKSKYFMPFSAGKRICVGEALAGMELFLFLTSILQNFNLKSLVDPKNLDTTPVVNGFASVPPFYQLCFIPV

[8] = target: T1, Cytochrome P450 2C8 (Homo sapiens, UniProt P10632); test: Inhibition of human CYP2C8; type: ADME
T1 sequence (P10632 whole entry): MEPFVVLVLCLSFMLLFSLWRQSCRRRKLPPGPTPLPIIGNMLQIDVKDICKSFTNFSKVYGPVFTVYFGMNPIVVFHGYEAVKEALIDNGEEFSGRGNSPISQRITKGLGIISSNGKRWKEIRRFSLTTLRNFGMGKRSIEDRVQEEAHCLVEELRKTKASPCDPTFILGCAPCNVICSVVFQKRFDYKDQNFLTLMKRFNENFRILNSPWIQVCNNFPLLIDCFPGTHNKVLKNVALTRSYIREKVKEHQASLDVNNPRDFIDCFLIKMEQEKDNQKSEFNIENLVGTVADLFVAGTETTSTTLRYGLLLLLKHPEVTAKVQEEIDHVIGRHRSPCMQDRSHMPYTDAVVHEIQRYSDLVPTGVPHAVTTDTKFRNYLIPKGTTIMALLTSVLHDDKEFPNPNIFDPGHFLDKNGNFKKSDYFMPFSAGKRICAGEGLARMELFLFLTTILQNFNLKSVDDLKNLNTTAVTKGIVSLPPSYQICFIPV

[9] = target: T2, Cytochrome P450 1A2 (Homo sapiens, UniProt P05177); test: Inhibition of human CYP1A2; type: ADME
T2 sequence (P05177 whole entry): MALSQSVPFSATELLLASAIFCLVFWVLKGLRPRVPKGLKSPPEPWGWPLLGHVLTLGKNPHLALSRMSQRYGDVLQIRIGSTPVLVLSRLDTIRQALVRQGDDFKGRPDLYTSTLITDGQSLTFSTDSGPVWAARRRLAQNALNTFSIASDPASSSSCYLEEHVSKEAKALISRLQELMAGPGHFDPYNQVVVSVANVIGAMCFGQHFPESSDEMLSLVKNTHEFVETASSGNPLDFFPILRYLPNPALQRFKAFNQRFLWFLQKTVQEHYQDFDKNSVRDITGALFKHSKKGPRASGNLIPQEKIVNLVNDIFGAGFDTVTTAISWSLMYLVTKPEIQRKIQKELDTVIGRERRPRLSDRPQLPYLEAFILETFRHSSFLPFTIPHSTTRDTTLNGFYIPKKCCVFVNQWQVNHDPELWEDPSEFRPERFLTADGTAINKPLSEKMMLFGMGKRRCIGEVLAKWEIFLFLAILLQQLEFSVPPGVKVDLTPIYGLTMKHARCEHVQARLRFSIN

[10] = target: Cytochrome P450 2C19 (Homo sapiens, UniProt P33261); test: Inhibition of human CYP2C19; type: ADME
Chain of Cytochrome P450 2C19 (P33261 whole entry): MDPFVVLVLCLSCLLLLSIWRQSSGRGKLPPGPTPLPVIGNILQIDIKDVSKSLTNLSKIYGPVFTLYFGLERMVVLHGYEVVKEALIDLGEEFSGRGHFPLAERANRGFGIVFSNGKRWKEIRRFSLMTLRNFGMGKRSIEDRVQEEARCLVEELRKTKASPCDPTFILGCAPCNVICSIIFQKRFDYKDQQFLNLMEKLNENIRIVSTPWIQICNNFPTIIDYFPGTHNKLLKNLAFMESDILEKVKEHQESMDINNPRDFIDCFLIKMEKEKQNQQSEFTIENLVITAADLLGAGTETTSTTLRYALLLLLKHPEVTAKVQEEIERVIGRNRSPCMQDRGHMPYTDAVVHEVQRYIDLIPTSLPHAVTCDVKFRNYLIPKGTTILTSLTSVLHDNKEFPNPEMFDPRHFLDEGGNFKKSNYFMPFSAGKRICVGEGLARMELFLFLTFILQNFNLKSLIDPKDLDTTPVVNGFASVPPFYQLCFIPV

[11] = target: T3, Cytochrome P450 2A6 (Homo sapiens, UniProt P11509); test: Inhibition of human CYP2A6; type: ADME
T3 sequence (P11509 whole entry): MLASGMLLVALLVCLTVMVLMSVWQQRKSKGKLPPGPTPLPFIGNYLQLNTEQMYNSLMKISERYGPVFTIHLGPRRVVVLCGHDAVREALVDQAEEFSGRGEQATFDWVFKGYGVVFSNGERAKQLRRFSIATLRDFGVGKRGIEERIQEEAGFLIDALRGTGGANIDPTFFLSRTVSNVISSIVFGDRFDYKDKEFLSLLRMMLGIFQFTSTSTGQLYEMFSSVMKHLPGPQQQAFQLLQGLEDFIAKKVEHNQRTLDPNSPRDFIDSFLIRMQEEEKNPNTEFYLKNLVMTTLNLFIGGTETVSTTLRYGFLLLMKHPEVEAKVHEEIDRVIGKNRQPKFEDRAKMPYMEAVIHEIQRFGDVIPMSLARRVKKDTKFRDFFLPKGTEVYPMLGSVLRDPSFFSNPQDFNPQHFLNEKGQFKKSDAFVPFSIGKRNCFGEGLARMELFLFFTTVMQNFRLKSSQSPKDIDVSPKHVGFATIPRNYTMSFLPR

[12] = Oral bioavailability in rat; type: ADME, organism-based; conditions: in vivo
[13] = target: Cytochrome P450 3A4 (Homo sapiens, UniProt P08684); test: Inhibition of human CYP3A4; type: ADME
Chain of Cytochrome P450 3A4 (P08684 whole entry): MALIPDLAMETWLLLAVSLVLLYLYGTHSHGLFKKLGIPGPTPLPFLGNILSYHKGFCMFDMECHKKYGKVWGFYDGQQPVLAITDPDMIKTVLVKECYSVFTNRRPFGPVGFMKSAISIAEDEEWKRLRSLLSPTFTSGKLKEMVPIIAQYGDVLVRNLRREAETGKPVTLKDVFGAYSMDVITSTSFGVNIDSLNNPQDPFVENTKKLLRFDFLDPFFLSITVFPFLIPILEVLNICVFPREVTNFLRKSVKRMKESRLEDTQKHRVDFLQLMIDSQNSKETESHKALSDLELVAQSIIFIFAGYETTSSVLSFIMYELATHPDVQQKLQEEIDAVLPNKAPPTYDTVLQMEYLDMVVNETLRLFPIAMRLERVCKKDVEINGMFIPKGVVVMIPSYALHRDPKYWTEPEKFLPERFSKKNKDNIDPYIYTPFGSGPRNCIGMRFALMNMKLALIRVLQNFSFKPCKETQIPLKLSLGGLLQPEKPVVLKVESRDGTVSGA

[14] = target: Cytochrome P450 2D6 (Homo sapiens, UniProt P10635); test: Inhibition of human CYP2D6; type: ADME
Chain of Cytochrome P450 2D6 (P10635 whole entry): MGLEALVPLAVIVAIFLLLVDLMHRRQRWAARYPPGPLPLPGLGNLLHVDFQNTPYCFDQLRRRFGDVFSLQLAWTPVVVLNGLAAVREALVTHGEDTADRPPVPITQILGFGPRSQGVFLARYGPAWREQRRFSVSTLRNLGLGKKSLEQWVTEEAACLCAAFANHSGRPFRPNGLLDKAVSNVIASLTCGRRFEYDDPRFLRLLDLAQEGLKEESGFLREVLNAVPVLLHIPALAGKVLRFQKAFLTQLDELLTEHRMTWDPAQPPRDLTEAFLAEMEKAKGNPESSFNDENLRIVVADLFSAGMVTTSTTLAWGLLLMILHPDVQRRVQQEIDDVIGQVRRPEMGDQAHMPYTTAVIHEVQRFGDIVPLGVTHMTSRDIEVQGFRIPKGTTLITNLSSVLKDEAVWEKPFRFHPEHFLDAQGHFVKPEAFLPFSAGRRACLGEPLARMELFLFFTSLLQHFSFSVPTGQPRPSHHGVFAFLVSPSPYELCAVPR

[15] = target: Dihydroorotate dehydrogenase (quinone), mitochondrial (Homo sapiens, UniProt Q02127)
Chain of Dihydroorotate dehydrogenase (quinone), mitochondrial (Q02127 whole entry): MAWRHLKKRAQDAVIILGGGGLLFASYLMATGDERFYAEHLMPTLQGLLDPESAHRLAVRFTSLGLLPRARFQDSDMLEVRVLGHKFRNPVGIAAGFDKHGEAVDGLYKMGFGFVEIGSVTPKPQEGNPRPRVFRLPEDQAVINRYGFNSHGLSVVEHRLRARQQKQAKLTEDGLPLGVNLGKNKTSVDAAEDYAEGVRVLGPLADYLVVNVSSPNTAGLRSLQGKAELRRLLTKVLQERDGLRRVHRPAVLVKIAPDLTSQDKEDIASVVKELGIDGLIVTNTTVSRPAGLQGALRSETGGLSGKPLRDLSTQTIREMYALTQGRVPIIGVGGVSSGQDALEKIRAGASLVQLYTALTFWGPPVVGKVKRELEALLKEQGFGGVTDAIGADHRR
Description: Inhibition of human recombinant DHOD expressed in Escherichia coli

[16] = target: P-selectin (Homo sapiens) (UniProt P16109); test: Inhibition of human recombinant P-selectin expressed in CHO cells by Biacore assay at 2 mM
Chain of P-selectin (Homo sapiens) (P16109 whole entry, looked up): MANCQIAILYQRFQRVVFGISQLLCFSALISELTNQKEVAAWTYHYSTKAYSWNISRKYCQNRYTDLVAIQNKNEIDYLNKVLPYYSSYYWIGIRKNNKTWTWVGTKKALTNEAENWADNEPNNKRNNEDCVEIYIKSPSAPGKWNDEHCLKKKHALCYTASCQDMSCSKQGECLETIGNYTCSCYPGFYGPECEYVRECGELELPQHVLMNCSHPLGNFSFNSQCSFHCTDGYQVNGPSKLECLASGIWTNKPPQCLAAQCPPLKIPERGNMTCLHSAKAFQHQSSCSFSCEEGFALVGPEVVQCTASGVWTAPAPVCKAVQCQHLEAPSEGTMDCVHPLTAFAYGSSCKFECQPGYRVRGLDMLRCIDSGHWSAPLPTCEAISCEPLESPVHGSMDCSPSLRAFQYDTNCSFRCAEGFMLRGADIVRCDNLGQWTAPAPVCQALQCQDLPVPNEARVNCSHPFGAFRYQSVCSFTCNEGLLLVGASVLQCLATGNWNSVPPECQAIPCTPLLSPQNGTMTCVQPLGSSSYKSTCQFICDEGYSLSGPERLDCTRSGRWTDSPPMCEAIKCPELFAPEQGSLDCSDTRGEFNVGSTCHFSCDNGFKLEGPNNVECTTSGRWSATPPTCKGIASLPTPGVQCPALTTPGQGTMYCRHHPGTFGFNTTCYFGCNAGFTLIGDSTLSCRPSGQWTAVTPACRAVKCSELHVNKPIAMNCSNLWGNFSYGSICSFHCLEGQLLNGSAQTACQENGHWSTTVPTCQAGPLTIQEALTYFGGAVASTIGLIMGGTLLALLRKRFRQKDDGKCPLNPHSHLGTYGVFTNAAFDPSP

[17] = target: P-selectin (Homo sapiens) (UniProt P16109); test: Inhibition of human recombinant P-selectin expressed in CHO cells by Biacore assay at 250 uM
[18] = system: Rattus norvegicus; test: Inhibition of carrageenan-induced paw edema in Sprague-Dawley rat at 10 mg/kg, po; type: functional
[19] = system: Rattus norvegicus; test: Inhibition of Freund's complete adjuvant-induced arthritis in Lewis rat at 5 mg/kg, po; type: functional, organism-based; parameters: dose 5 mg/kg
[20] = target: P-selectin (Homo sapiens) (UniProt P16109); test: Inhibition of human recombinant P-selectin expressed in CHO cells by Biacore assay at 6 mM
[21] = target: Dihydroorotate dehydrogenase (quinone), mitochondrial (Rattus norvegicus) (UniProt Q63707)
Chain of Dihydroorotate dehydrogenase (quinone), mitochondrial (Rattus norvegicus) (Q63707 whole entry): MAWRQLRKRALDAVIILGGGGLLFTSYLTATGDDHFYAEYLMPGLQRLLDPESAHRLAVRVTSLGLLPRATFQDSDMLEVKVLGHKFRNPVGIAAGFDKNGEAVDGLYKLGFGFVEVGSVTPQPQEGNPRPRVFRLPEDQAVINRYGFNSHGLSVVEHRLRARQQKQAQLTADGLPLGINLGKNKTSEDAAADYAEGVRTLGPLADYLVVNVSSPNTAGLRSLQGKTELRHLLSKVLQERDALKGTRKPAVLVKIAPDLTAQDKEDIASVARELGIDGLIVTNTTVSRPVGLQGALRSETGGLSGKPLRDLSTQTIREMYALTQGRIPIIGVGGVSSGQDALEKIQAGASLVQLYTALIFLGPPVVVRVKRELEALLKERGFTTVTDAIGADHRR
Description: Antagonist activity against DHOD in rat

[22] = system: Rattus norvegicus; test: Inhibition of carrageenan-induced paw edema in Sprague-Dawley rat at 0.5 mg/kg, po; type: functional
[23] = system: Rattus norvegicus; test: Inhibition of carrageenan-induced paw edema in Sprague-Dawley rat at 1 mg/kg, po; type: functional
[24] = system: Rattus norvegicus; test: Inhibition of carrageenan-induced paw edema in Sprague-Dawley rat at 5 mg/kg, po; type: functional
[25] = system: Rattus norvegicus; test: Inhibition of carrageenan-induced paw edema in Sprague-Dawley rat at 50 mg/kg, po; type: functional

Compound: O=C(O)c1c(O)c(-c2ccc(Cl)cc2)nc2c(-c3ccccc3)cccc12
- pIC50 [1]: 5.35
- clearance [2]: 9.1 mL/min/kg
- AUC [3]: 3.93 µM·h
- Cmax [4]: 9 µM
- Activity [5]: Non-toxic
- concentration [6]: 0.5 µM
- pIC50 [7]: 5.09
- pIC50 [8]: 5.32
- pIC50 [9]: 3.30
- pIC50 [10]: 3.84
- pIC50 [11]: 3.30
- bioavailability [12]: 24%
- pIC50 [13]: 4.26
- pIC50 [14]: 3.82

Compound: O=C(O)c1c(O)c(-c2ccc(Cl)cc2)nc2ccc(-c3ccsc3)cc12
- pIC50 [15]: 3.87

Compound: Cc1ccc2c(C(=O)O)c(O)c(-c3ccc(C(C)C)cc3)nc2c1C
- pIC50 [1]: 5.10

Compound: Cc1ccc2c(C(=O)O)c(O)c(-c3ccc(C(F)(F)F)cc3)nc2c1C
- pIC50 [1]: 5.15
- clearance [2]: 4.7 mL/min/kg
- AUC [3]: 8.58 µM·h
- Cmax [4]: 9 µM

Compound: O=C(O)c1c(O)c(-c2ccc(Cl)cc2)nc2c(C(F)(F)F)cccc12
- pIC50 [1]: 4.89
- pIC50 [15]: 3.87

Compound: CCC(C)c1cccc2c(C(=O)O)c(O)c(-c3ccc(Cl)cc3)nc12 (stereo not drawn)
- pIC50 [1]: 5.52
- clearance [2]: 13.3 mL/min/kg
- AUC [3]: 3.45 µM·h
- Cmax [4]: 6.7 µM
- pIC50 [15]: 3.52

Compound: Cc1ccc2c(C(=O)O)c(O)c(-c3ccc(Br)cc3)nc2c1C
- pIC50 [1]: 5.22
- clearance [2]: 6.2 mL/min/kg
- AUC [3]: 6.52 µM·h
- Cmax [4]: 5.5 µM

Compound: Cc1cc(OC(F)(F)F)cc2c(C(=O)O)c(O)c(-c3ccc(Cl)cc3)nc12
- pIC50 [1]: 4.81

Compound: O=C(O)c1c(O)c(-c2ccc(Cl)cc2)nc2ccc(Cl)cc12
- inhibition [16]: 38%

Compound: O=C(O)c1c(O)c(-c2ccc(Cl)cc2)nc2c(OC(F)(F)F)cccc12
- pIC50 [1]: 4.98
- pIC50 [15]: 3.89

Compound: COc1ccc(-c2ccc3nc(-c4ccc(Cl)cc4)c(O)c(C(=O)O)c3c2)cc1
- inhibition [17]: 39%

Compound: COc1ccc2cc([C@H](C)C(=O)O)ccc2c1 [NAPROXEN]
- inhibition in vivo at 10 mg/kg [18]: 68.3%

Compound: CC(C)c1cccc2c(C(=O)O)c(O)c(-c3ccc(Cl)cc3)nc12
- pIC50 [1]: 5.33
- clearance [2]: 6.5 mL/min/kg
- AUC [3]: 6.7 µM·h
- Cmax [4]: 7 µM
- pIC50 [15]: 3.55

Compound: O=C(O)c1c(O)c(-c2ccc(Cl)cc2)nc2ccc(OC(F)(F)F)cc12
- pIC50 [1]: 4.60

Compound: O=C(O)c1c(O)c(-c2ccc(Cl)cc2)nc2c(Cl)cccc12
- pIC50 [1]: 4.66
- pIC50 [15]: 3.85

Compound: Cc1cccc2c(C(=O)O)c(O)c(-c3ccc(Cl)cc3)nc12
- pIC50 [1]: 4.89
- pIC50 [15]: 3.67

Compound: O=C(O)c1c(O)c(-c2ccc(Cl)cc2)nc2ccc(-c3ccccc3)cc12
- pIC50 [15]: 3.64

Compound: Cc1ccc2c(C(=O)O)c(O)c(-c3cccc(OC(F)(F)F)c3)nc2c1C
- pIC50 [1]: 5.30

Compound: O=C(O)c1ccc(-c2ccc3nc(-c4ccc(Cl)cc4)c(O)c(C(=O)O)c3c2)cc1
- pIC50 [15]: 3.87

Compound: Cc1ccc(-c2cc(C(F)(F)F)nn2-c2ccc(S(N)(=O)=O)cc2)cc1
- Activity [19]: Active

Compound: O=C(O)c1cc(-c2ccccc2)nc2ccccc12
- inhibition [20]: 22%

Compound: CCN(CC)c1ccc(-c2nc3c(C)c(C)ccc3c(C(=O)O)c2O)cc1
- pIC50 [1]: 4.72

Compound: COc1c(-c2ccccc2)nc2ccccc2c1C(=O)O
- inhibition [20]: 22%

Compound: Nc1c(-c2ccc(-c3ccccc3)cc2)nc2ccc(F)cc2c1C(=O)O
- pIC50 [15]: 7.92
- LD50 [21]: 20.5 mg/kg

Compound: CN(C)c1ccc(-c2cccc3c(C(=O)O)c(O)c(-c4ccc(Cl)cc4)nc23)cc1
- pIC50 [1]: 4.70

Compound: CCc1cccc2c(C(=O)O)c(O)c(-c3ccc(Cl)cc3)nc12
- pIC50 [1]: 5.00

Compound: Cc1ccc2c(C(=O)O)c(O)c(-c3cccc(Cl)c3)nc2c1C
- pIC50 [1]: 5.30

Compound: Oc1cc2ccccc2nc1-c1ccccc1
- Activity [20]: inactive

Compound: COc1ccc2c(C(=O)O)c(O)c(-c3ccc(Cl)cc3)nc2c1
- pIC50 [15]: 3.82

Compound: COc1cccc2c(C(=O)O)c(O)c(-c3ccc(Cl)cc3)nc12
- pIC50 [15]: 3.51

Compound: O=C(O)c1c(O)c(-c2ccc(Cl)cc2)nc2c(Br)cccc12
- pIC50 [1]: 4.70
- pIC50 [15]: 3.88

Compound: Cc1ccc2c(C(=O)O)c(O)c(-c3ccc(OC(F)(F)F)cc3)nc2c1C
- pIC50 [1]: 4.82

Compound: Cc1ccc2c(C(=O)O)c(O)c(-c3ccc(Cl)cc3)nc2c1C
- pIC50 [1]: 5.00
- clearance [2]: 6.2 mL/min/kg
- AUC [3]: 7.68 µM·h
- Cmax [4]: 13 µM
- Activity [5]: Non-toxic
- concentration [6]: 1.8 µM
- pIC50 [7]: 5.70
- pIC50 [8]: 5.05
- pIC50 [9]: 5.40
- pIC50 [10]: 6.00
- pIC50 [11]: 4.70
- inhibition in vivo at 0.5 mg/kg [22]: 10.8%
- inhibition in vivo at 1 mg/kg [23]: 12.8%
- inhibition in vivo at 5 mg/kg [24]: 10.3%
- inhibition in vivo at 10 mg/kg [18]: 14.1%
- inhibition in vivo at 50 mg/kg [25]: 15.6%
- pIC50 [13]: 5.15
- pIC50 [14]: 4.77
